The target of experiment [1] is GDP-bound HRAS wild-type protein (Homo sapiens, UniProt P01112). In words: Binding to HRAS by surface plasmon resonance (SPR), Single Cycle Kinetics. The following applies: for HRAS/KRAS (ratio of KD value for HRAS to KD value for KRAS): GDP-bound HRAS wild-type vs GDP-bound KRAS wild-type.
Experiment [2] has as its target GDP-bound NRAS wild-type protein (Homo sapiens, UniProt P01111). Put plainly: Binding to NRAS by surface plasmon resonance (SPR), Single Cycle Kinetics. As to conditions: for NRAS/KRAS (ratio of KD value for NRAS to KD value for KRAS): GDP-bound NRAS wild-type vs GDP-bound KRAS wild-type. For orientation: In SPR one partner is held on a chip, and binding of the other changes the refractive index at the surface.

Where a SMILES comes first, the peptide text is derived from it. Bridges are numbered along the chain shown (N, C = ends). [ ]: non-standard residue; d: D form. hPhe(3-Cl-4-CF3) = N[C@@H](CCc1ccc(C(F)(F)F)c(Cl)c1)C(=O)O; NPrPhe(4-CF3) = CCCN[C@@H](Cc1ccc(C(F)(F)F)cc1)C(=O)O; NMeGly(cPent) = CN[C@H](C(=O)O)C1CCCC1; NMeL = CN[C@@H](CC(C)C)C(=O)O; Ac5c = NC1(C(=O)O)CCCC1; NEtG = CCNCC(=O)O; Sar = CNCC(=O)O

GDP-bound NRAS wild-type protein, sequence (P01111 whole entry): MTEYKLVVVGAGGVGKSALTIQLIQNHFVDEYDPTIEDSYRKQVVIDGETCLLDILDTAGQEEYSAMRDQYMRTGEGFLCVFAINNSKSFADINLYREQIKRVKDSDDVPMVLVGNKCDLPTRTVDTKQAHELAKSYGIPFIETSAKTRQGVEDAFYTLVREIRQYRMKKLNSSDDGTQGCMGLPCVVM
GDP-bound HRAS wild-type protein, sequence (P01112 whole entry): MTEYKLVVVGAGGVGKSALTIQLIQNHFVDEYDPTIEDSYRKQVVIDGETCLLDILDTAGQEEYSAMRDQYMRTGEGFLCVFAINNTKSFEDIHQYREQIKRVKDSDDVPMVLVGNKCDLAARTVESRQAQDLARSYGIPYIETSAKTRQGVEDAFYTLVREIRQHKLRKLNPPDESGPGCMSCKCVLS

For `CC[C@H](C)[C@@H]1NC(=O)[C@H](CC(C)C)N(C)C(=O)C[C@@H](C(=O)N2CCOCC2)N(CC)C(=O)[C@H](C2CCCC2)N(C)C(=O)C2(CCCC2)NC(=O)[C@@H]2CCCN2C(=O)[C@H](CCc2cc(F)c(C(F)(F)F)c(F)c2)NC(=O)CN(C)C(=O)[C@H](Cc2ccc(C(F)(F)F)cc2)N2CCCC[C@@H](C2=O)N(C)C(=O)CN(C)C1=O` [PP0539], the “HRAS/KRAS (ratio of KD value with respect to GDP-bound HRAS wild-type protein to KD value with respect to KRAS)” value in experiment [1] (KD ratio HRAS/KRAS, SPR) is “B (a compound having 3 or more and less than 10 is denoted as B)”. Further, the “NRAS/KRAS (ratio of KD value with respect to GDP-bound NRAS wild-type protein to KD value with respect to KRAS)” value in experiment [2] (KD ratio NRAS/KRAS, SPR) was “B (a compound having 3 or more and less than 10 is denoted as B)”.

As to `CCC[C@H]1C(=O)N[C@@H]([C@@H](C)CC)C(=O)N(C)CC(=O)N(C)[C@H]2C/C=C\CCN(C2=O)[C@@H](Cc2ccc(C(F)(F)F)cc2)C(=O)N(C)CC(=O)N[C@@H](CCc2cc(F)c(C(F)(F)F)c(F)c2)C(=O)N2C[C@H](OCC)C[C@H]2C(=O)NC2(CC(C)(C)C2)C(=O)N(C)[C@@H](C2CCCC2)C(=O)N(C)[C@H](C(=O)N2CCC2)CC(=O)N1C` [PP1943], the “HRAS/KRAS (ratio of KD value for HRAS to KD value for KRAS)” value in experiment [1] (SPR) was “B (a compound having 3 or more and less than 10 is denoted as B)”. For the same compound, in experiment [2] (SPR), the “NRAS/KRAS (ratio of KD value for NRAS to KD value for KRAS)” value is “A (a compound having 10 or more and less than 20 is denoted as A)”.

Regarding `C#CC[C@H]1C(=O)N[C@@H]([C@@H](C)CC)C(=O)N(C)CC(=O)N(C)[C@H]2CCCCCN(C2=O)[C@@H](Cc2ccc(C(F)(F)F)cc2)C(=O)N(C)CC(=O)N[C@@H](CCc2cc(F)c(C(F)(F)F)c(F)c2)C(=O)N2C[C@H](OCC)C[C@H]2C(=O)NC2(CCC2)C(=O)N(C)[C@@H](C2CCCC2)C(=O)N(C)[C@H](C(=O)N(C)C)CC(=O)N1C` [PP0666], the “HRAS/KRAS (ratio of KD value with respect to GDP-bound HRAS wild-type protein to KD value with respect to KRAS)” value in experiment [1] (KD ratio HRAS/KRAS, SPR) was “B (a compound having 3 or more and less than 10 is denoted as B)”. Also, in experiment [2] (KD ratio NRAS/KRAS, SPR), the “NRAS/KRAS (ratio of KD value with respect to GDP-bound NRAS wild-type protein to KD value with respect to KRAS)” value was “B (a compound having 3 or more and less than 10 is denoted as B)”.

For the compound `CCCOC[C@H]1C(=O)N[C@@H]([C@@H](C)CC)C(=O)N(C)CC(=O)N(C)[C@H]2C/C=C\CCN(C2=O)[C@@H](Cc2ccc(C(F)(F)F)cc2)C(=O)N(C)CC(=O)N[C@@H](CCc2cc(F)c(Cl)c(F)c2)C(=O)N2C[C@H](OCC)C[C@H]2C(=O)NC2(CC(C)(C)C2)C(=O)N(C)[C@@H](C2CCCC2)C(=O)N(C)[C@H](C(=O)N(C)C)CC(=O)N1C` [PP1764], in experiment [1] (SPR), the “HRAS/KRAS (ratio of KD value for HRAS to KD value for KRAS)” value was “A (a compound having 10 or more and less than 20 is denoted as A)”. Further, the “NRAS/KRAS (ratio of KD value for NRAS to KD value for KRAS)” value in experiment [2] (SPR) is recorded as “AA (a compound having 20 or more is denoted as AA)”.

As to `CC[C@H](C)[C@@H]1NC(=O)[C@H](COC)N(C)C(=O)C[C@@H](C(=O)N(C)C)N(C)C(=O)[C@H](C2CCCC2)N(C)C(=O)C2(CC(C)(C)C2)NC(=O)[C@@H]2C[C@@H](OC3CCCC3)CN2C(=O)[C@H](CCc2ccc(Cl)c(Cl)c2)NC(=O)CN(C)C(=O)[C@H](Cc2ccc(C)cc2)N2CC/C=C\C[C@@H](C2=O)N(C)C(=O)CN(C2CC2)C1=O` [PP2628], the “HRAS/KRAS (ratio of KD value with respect to GDP-bound HRAS wild-type protein to KD value with respect to KRAS)” value in experiment [1] (KD ratio HRAS/KRAS, class symbols) is “A (a compound having 10 or more and less than 20 is denoted as A)”. Besides, the “NRAS/KRAS (ratio of KD value with respect to GDP-bound NRAS wild-type protein to KD value with respect to KRAS)” value in experiment [2] (KD ratio NRAS/KRAS, class symbols) is “A (a compound having 10 or more and less than 20 is denoted as A)”.

As for `CCCN1C(=O)CN(C)C(=O)CN(CC)C(=O)[C@H]([C@@H](C)CC)NC(=O)[C@H](CC(C)C)N(C)C(=O)C[C@@H](C(=O)N(C)C)NC(=O)[C@H](C2CCCC2)N(C)C(=O)C2(CCCC2)NC(=O)[C@@H]2CCCN2C(=O)[C@H](CCc2ccc(C(F)(F)F)c(Cl)c2)NC(=O)CN(C)C(=O)[C@@H]1Cc1ccc(C(F)(F)F)cc1` [PP0367] ([NMeL]I[NEtG][Sar][NPrPhe(4-CF3)][Sar][hPhe(3-Cl-4-CF3)]P[Ac5c][NMeGly(cPent)]D-NMe2; lactam N-11), in experiment [1] (KD ratio HRAS/KRAS, SPR), the “HRAS/KRAS (ratio of KD for GDP-bound HRAS wild-type to KD for KRAS)” value was “B (a compound having 3 or more and less than 10 is denoted as B)”. Also, the “NRAS/KRAS (ratio of KD for GDP-bound NRAS wild-type to KD for KRAS)” value in experiment [2] (KD ratio NRAS/KRAS, SPR) is “B (a compound having 3 or more and less than 10 is denoted as B)”.

As to `CCO[C@@H]1C[C@H]2C(=O)NC3(CC(F)(F)C3)C(=O)N(C)[C@@H](C3CCCC3)C(=O)N(C)[C@H](C3CCC3)CC(=O)N(C)[C@@H](CC3CC3)C(=O)N[C@@H]([C@@H](C)CC)C(=O)N(C)CC(=O)N(C)[C@H]3C/C=C\CCN(C3=O)[C@@H](Cc3ccc(C(F)(F)F)cc3)C(=O)N(C)CC(=O)N[C@@H](CCc3cc(F)c(C(F)(F)F)c(F)c3)C(=O)N2C1` [PP1639], in experiment [1] (SPR), the “HRAS/KRAS (ratio of KD value for HRAS to KD value for KRAS)” value was “A (a compound having 10 or more and less than 20 is denoted as A)”. The “NRAS/KRAS (ratio of KD value for NRAS to KD value for KRAS)” value in experiment [2] (SPR) is “A (a compound having 10 or more and less than 20 is denoted as A)”.
